Here are results for 13 molecules from patent US20230131339A1, “EPI-X4 BASED PEPTIDES AND DERIVATIVES THEREOF” (Universitaet Ulm, priority 2020, published 2023).

Series [1] deals with CXCL12-induced AKT signaling. The series is described as follows: ERK/AKT signaling assay in SupT1 cells: AKT phosphorylation. The format is cell-based. The procedure:
(§1) Third, the activity of the claimed EPI-X4 derivatives was tested by the effect on CXCL12/CXCR4-mediated ERK (Extracellular-signal Regulated Kinases) and AKT (a serine/threonine-protein kinase) signaling (FIG. 3). In that assay CXCR4 expressing cells are stimulated with the CXCR4 chemokine-ligand CXCL12, which subsequently leads to phosphorylation of ERK and AKT. Preincubation of cells with CXCR4-antagonists blocks those pathways. […] Two or three independent experiments were carried out in triplicates for each peptide in each assay. The error bars refer to the standard deviation.
(§2) ERK/AKT signaling assay. CXCL12 induced ERK and AKT phosphorylation was determined in SupT1 cells. For this, 100,000 cells were seeded per well in a 96-V well plate in 100 μl medium supplemented with 1% FCS. Cells were incubated for 2 hours at 37° C. before 5 μl of compounds were added. After 15 min incubation at 37° C. cells were stimulated by adding 5 μl CXCL12 diluted in PBS to reach a final concentration of 100 ng/ml. Cells were further incubated for 2 min before the reaction was stopped by adding 20 μl of 10% PFA. Cells were fixed for 15 min at 4° C. before PFA was removed and cells permeabilized by adding 100 μl ice cold methanol. After 15 min at 4° C. the methanol was removed, cells were washed and 30 μl primary antibody was added (phospho-p44/42 MAPK (Erk1) (Tyr204)/(Erk2) (Tyr187) (D1H6G) mouse mAb #5726; phosphor-Akt (Ser473) (193H12) rabbit mAb #4058 Cell Signaling) for 1 hour at 4° C. After the antibody was removed and cells were washed secondary antibody was added for 30 min. Cells were washed afterwards and subsequently analyzed by flow cytometry.

In series [2] the test system is CXCL12-induced ERK signaling. The series is described as follows: ERK/AKT signaling assay in SupT1 cells: ERK phosphorylation. The series is classed as cell-based. As for the experimental part: as §1, §2
Series [3] has as its system CXCR4-tropic X4-HIV-1 (NL4-3). The series is classed as cell-based.
The next series deals with T1, CXCR4 (Homo sapiens, UniProt P61073).
T1 construct: endogenous in cells; host or cells: SupT1 cells
The series can be described thus: Antibody competition assay (12G5-assay) on SupT1 cells. The series is classed as binding. As for the experimental part: Second, the activity was tested by an antibody competition assay (FIG. 2). Values determined by the competition assay represent the potency of a compound to compete with an antibody that specifically binds to the binding pocket (ECL2) of CXCR4. […] To the right of the diagrams, an assignment of the curves to the tested peptides is explained. […] Three independent experiments were carried out for each peptide in each assay. The error bars refer to the standard deviation.
(§3) Antibody competition assay. Competition of compounds with antibody binding was performed on SupT1 cells. For that cells were washed in PBS containing 1% FCS and 50,000 cells were then seeded per well in a 96 V-well plate. Buffer was removed and plates were precooled at 4° C. Compounds were diluted in PBS and antibody (clone 12G5, APC labelled) was diluted in PBS containing 1% FCS. The antibody was used at a concentration closed to its determined Kd. 15 μl compounds were then added to the cells and 15 μl antibody immediately afterwards. Plates were incubated at 4° C. in the dark for 2 hours. Afterwards cells were washed twice with PBS containing 1% FCS and fixed with 2% PFA. Antibody binding was analyzed by flow cytometry (FACS CytoFLEX; Beckman Coulter®).

The target in series [4] is T2, CXC chemokine receptor type 4 (CXCR4) (human, UniProt P61073 1-352). The series can be described thus: cell-based or functional assay.
Series [5] has as its target T2, CXC chemokine receptor type 4 (CXCR4). The series can be described thus: 12G5-APC antibody competition on SupT1 cells, flow cytometry. As for the experimental part: To the right of the diagrams, an assignment of the curves to the tested peptides is explained. […] Three independent experiments were carried out for each peptide in each assay. The error bars refer to the standard deviation.
as §3, with “Compounds were diluted in PBS and antibody (clone 12G5, APC labelled) was diluted in PBS containing 1% FCS.” left out

Series [6] concerns the target T3, CXC chemokine receptor type 4 (CXCR4) (human, UniProt P61073 1-352).
T3 chain: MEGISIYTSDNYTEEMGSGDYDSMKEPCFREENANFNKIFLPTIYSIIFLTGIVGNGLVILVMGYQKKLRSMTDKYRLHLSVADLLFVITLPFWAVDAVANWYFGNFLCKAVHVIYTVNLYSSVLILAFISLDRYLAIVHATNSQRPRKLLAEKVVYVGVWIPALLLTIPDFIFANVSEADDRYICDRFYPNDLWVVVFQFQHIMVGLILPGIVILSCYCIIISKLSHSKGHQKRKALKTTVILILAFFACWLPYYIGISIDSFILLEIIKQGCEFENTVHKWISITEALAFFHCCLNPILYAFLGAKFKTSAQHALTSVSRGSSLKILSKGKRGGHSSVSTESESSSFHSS
The series can be described thus: competition.

Where two headings read alike, the source gives them in different places. Where a SMILES comes first, the peptide text is derived from it. Where no end group is shown, it is not given here. Side-chain parts run from the residue outwards. [ ]: non-standard residue; d: D form. The star is where a group is joined. Palmitoyl = CCCCCCCCCCCCCCCC(=O)*; Myristoyl = CCCCCCCCCCCCCC(=O)*; Glu = glutamate linker Bounds are passed on as bounds.

With `CCCCCCCCCCCCCCCC(=O)NCCCC[C@H](NC(=O)[C@H](CCCCN)NC(=O)[C@H](CO)NC(=O)[C@H](Cc1c[nH]c2ccccc12)NC(=O)[C@H](CCCNC(=N)N)NC(=O)[C@@H](NC(=O)[C@@H](N)[C@@H](C)CC)C(C)C)C(=O)N[C@H](C(=O)N1CCC[C@H]1C(=O)N[C@@H](CS)C(=O)N[C@H](C(=O)N[C@@H](CO)C(=O)O)C(C)C)C(C)C` [JM #169, IVRWSKK(Pal)VPCVS] (H-IVRWSKK(Palmitoyl)VPCVS-OH; C-terminus assumed), the “reduction of CXCL12-induced AKT signaling” value is 85% in series [1] (0.1 μM) and “completely” in series [1] (1 μM). Moreover, the results for the “reduction of CXCL12-induced ERK signaling” value in series [2] (0.1 μM) and in series [2] (1 μM) were “over 70%” and “almost completely blocked”, respectively.

Consider `CCCCCCCCCCCCCCCC(=O)NCCCC[C@H](NC(=O)[C@H](CCCNC(=N)N)NC(=O)[C@H](CO)NC(=O)[C@H](Cc1c[nH]c2ccccc12)NC(=O)[C@H](CCCNC(=N)N)NC(=O)[C@H](CCSC)NC(=O)[C@H](N)CC(C)C)C(N)=O` [JM #180, d-LMRWSRK(Pal)-NH2] (H-[dL]MRWSRK(Palmitoyl)-NH2), for which the “remaining activity in plasma in vivo 4 hours post injection” value (mice, i.v. tail vein, 4 hours post injection) is listed as 29%. In addition, the “remaining activity in plasma in vivo 8 hours post injection” value (mice, i.v. tail vein, 8 hours post injection) was “about 9%”. Moreover, in series [3], the “anti-HIV-1 activity (in words)” value is on record as “strongly increased anti-HIV-1 activity”.

By IC50 is commonly meant the concentration that inhibits the measured activity by half. Low readings indicate inhibition by little substance, high ones a need for much substance. Turning to `CCCCCCCCCCCCCCCC(=O)NCCCC[C@H](NC(=O)[C@H](CCCNC(=N)N)NC(=O)[C@H](CO)NC(=O)[C@H](Cc1c[nH]c2ccccc12)NC(=O)[C@H](CCCNC(=N)N)NC(=O)[C@H](CCSC)NC(=O)[C@H](N)CC(C)C)C(=O)N[C@@H](CCSC)C(=O)N1CCC[C@H]1C(N)=O` [JM #178, d-LMRWSRK(Pal)MP-NH2] (H-[dL]MRWSRK(Palmitoyl)MP-NH2; N-terminus assumed), on CXCR4, the 50% inhibitory concentration (IC50) worked out at 2 nM. Also, in series [3], the “anti-HIV-1 activity (in words)” value is reported as “strongly increased anti-HIV-1 activity”.

In the case of “SC037: PVP-coupled peptide JM #21, average molecular mass 20 kDa (ILRWSRKLPCVS; also: PVP-coupled, average 20 kDa)”, the “antibody competition / binding to CXCR4 (in words)” value (from here on “antibody competition / binding”) in the series with CXCR4 is on record as “comparable activity as JM #21”. Also, the “anti-HIV-1 activity (in words)” value in series [3] was “comparable activity as JM #21”.

As for “SC069: DSPE-coupled derivative (via PEG), two peptide copies on one end (ILRWSRKLPCVS; also: DSPE-coupled via PEG, two peptide copies on one end)”, in the series with CXCR4, the “antibody competition / binding” value is “higher activity than cholesterol-coupled SC043”. Also, the “anti-HIV-1 activity (in words)” value in series [3] is on record as “higher activity than cholesterol-coupled SC043”.

“ILRWSRK(Glu-Myr)LPCVS (ILRWSRK([Glu-Myristoyl])LPCVS) [JM #204]”: the “remaining activity in plasma in vivo 4 hours post injection” value (mouse, in vivo, iv, 4 h) is “lost”.

Regarding `CC[C@H](C)[C@H](N)C(=O)N[C@@H](CC(C)C)C(=O)N[C@@H](CCCNC(=N)N)C(=O)N[C@@H](Cc1c[nH]c2ccccc12)C(=O)N[C@@H](CO)C(=O)N[C@@H](CCCNC(=N)N)C(=O)N[C@@H](CCCCN)C(=O)N[C@@H](CCSC)C(=O)N1CCC[C@H]1C(=O)N[C@@H](CS)C(=O)N[C@@H](CC(C)C)C(=O)N[C@@H](CO)C(=O)O` [JM #18] (H-ILRWSRKMPCLS-OH; C-terminus assumed), the “reduction of CXCL12-induced AKT signaling” value is “about 40%” in series [1] (0.1 μM) and around 70% in series [1] (1 μM). Besides, the “reduction of CXCL12-induced ERK signaling” value in series [2] (0.1 μM) is “about 40%”; in series [2] (1 μM), around 70%.

For the molecule “SC066: PEG-coupled JM #21, two peptide copies on one end of PEG, average molecular mass 20 kDa (ILRWSRKLPCVS; also: PEG-coupled, two peptide copies on one end, average 20 kDa)”, the “antibody competition / binding” value with CXCR4 is listed as “even higher activity than JM #21”. For the same molecule, the “anti-HIV-1 activity (in words)” value in series [3] was “comparable to the state of the art CXCR4-antagonist AMD3100 and JM #21”.

For “SC001: DSPE-coupled derivative (via PEG), one peptide copy (ILRWSRKLPCVS; also: DSPE conjugate via PEG, one peptide copy, site not given here)”, in the series with CXCR4, the “antibody competition / binding” value is recorded as “higher activity than cholesterol-coupled SC043”. Also, the “anti-HIV-1 activity (in words)” value in series [3] is listed as “higher activity than cholesterol-coupled SC043”.

B1: JM#178 (peptide)
peptide: [dL]MRWSRK(Palmitoyl)MP-NH2
modifications: N-terminus assumed
SMILES: CCCCCCCCCCCCCCCC(=O)NCCCC[C@H](NC(=O)[C@H](CCCNC(=N)N)NC(=O)[C@H](CO)NC(=O)[C@H](Cc1c[nH]c2ccccc12)NC(=O)[C@H](CCCNC(=N)N)NC(=O)[C@H](CCSC)NC(=O)[C@H](N)CC(C)C)C(=O)N[C@@H](CCSC)C(=O)N1CCC[C@H]1C(N)=O
With B1, the “IC50, HIV inhibition assay” value in series [4] was 5 to 10 nM. Also, in series [5], the “fold more effective binding than EPI-X4” value is above 2000 fold and the “fold more effective than WSC02” value was around 300 fold.

In turn, ILRWSRK([Glu-Palmitoyl])-NH2 [JM#192] displayed a half-inhibitory concentration (IC50) in series [6] of 4 nM.

In series [6], ILRWSRK(Ac)LPCVS [JM#200] registered an IC50 of 213 nM. In addition, the “IC50, HIV inhibition assay” value in series [4] was 50 to 150 nM.

B2: JM#167 (peptide)
peptide: IVRWSKK(Palmitoyl)VP-NH2
modifications: N-terminus assumed
SMILES: CCCCCCCCCCCCCCCC(=O)NCCCC[C@H](NC(=O)[C@H](CCCCN)NC(=O)[C@H](CO)NC(=O)[C@H](Cc1c[nH]c2ccccc12)NC(=O)[C@H](CCCNC(=N)N)NC(=O)[C@@H](NC(=O)[C@@H](N)[C@@H](C)CC)C(C)C)C(=O)N[C@H](C(=O)N1CCC[C@H]1C(N)=O)C(C)C
In the case of B2, in series [5], the “fold more effective binding than EPI-X4” value was above 2000 fold and the “fold more effective than WSC02” value was around 300 fold.
